Marks after values point to notes of the source that are not given here.
Columns and labels:
[1] = Plasma protein binding (rapid equilibrium dialysis), rat; format: in vitro ADME; conditions: plasma, pH 7.4
Experimental: (§3) After incubation for 20 min, a portion of the whole blood was centrifuged at 2500× g for 10 min at 4 °C to separate plasma; another portion of the whole blood was subjected to three cycles of freeze–thawing and ultrasonicated for 10 min to disrupt cells. Equal volumes of plasma and whole blood samples were added to the whole blood and plasma specimens, respectively, followed by protein precipitation with acetonitrile containing an internal standard (IS). […] The RED inserts were placed in the matching incubation plate: 200 µL of drug-containing matrix were added to the sample chamber, and 400 µL of PBS buffer (pH: 7.4) were added to the buffer chamber. After incubation in a constant-temperature shaking incubator for 6 h (37 °C), samples from the sample chamber and buffer chamber were diluted 1:1 with PBS or matrix, respectively, and proteins were precipitated with acetonitrile containing IS.

[2] = Liver microsome protein binding, dog; format: in vitro ADME; conditions: beagle, liver microsomes, pH 7.4
Experimental: as §3

[3] = Pharmacokinetics of MT and CBD in rats after pre-administration of ABT
Experimental: Twelve SD rats were randomly divided into two groups. Both groups were first given an intragastric administration of 1-aminobenzotriazole (ABT) at a dose of 200 mg/kg. […] The administration volume for all groups was 5 mL/kg. […] Approximately 50 μL of venous blood were collected into heparin sodium anticoagulant tubes and placed on ice. The sample processing and storage methods were the same as described previously.
Subsequently, the resultant mixture was vortexed for 1 minute and centrifuged at 4 °C for 10 min at 18,800× g. […] The lowest limit of quantification (LLOQ) was established at 2 ng/mL.
Kromasil 100-5-C8 (2.1 × 50 mm) was selected for the separation of samples. The mobile phase consisted of solvent A (water with 0.1% formic acid and 5 mM ammonium acetate) and solvent B (methanol with 0.1% formic acid). […] The column temperature was set at 40 °C. The two eluents were 0.1% formic acid and 5 mM ammonium acetate in water (A) and 0.1% formic acid in methanol (B). […] The main mass spectrometry detection parameters were: dry gas 10 L/min, heated gas 10 L/min, collision gas 270 kPa, ion source temperature 300 °C, desolvation temperature 250 °C, and heating module temperature 400 °C.
Pharmacokinetic parameters: GraphPad Prism 10.1 software was utilized to draw the curves. Noncompartmental analysis was selected to calculate the major PK parameters, including clearance (CL), volume (V), half-life (t1/2), peak concentration (Cmax), and area under the curve (AUC), using WinNonlin 8.1.

[4] = Plasma protein binding (rapid equilibrium dialysis), dog; conditions: beagle, dog, plasma, pH 7.4
Experimental: as §3

[5] = tested on: CYP1A2-mediated metabolism of MT; assay: Static DDI model prediction of CBD's impact on MT exposure, rat; conditions: input of static DDI model
Source text: (§1) (AUC when co-administered with the inhibitor) to AUC[contr] (AUC without the inhibitor).

[6] = Plasma protein binding (rapid equilibrium dialysis), mouse; format: in vitro ADME; conditions: pH 7.4
Experimental: as §3

[7] = Pharmacokinetics of MT, 6-HMT and CBD in SD rats (i.v. and oral); conditions: for MRT last: MRT(0–t)
Experimental: The drugs were dissolved in the same manner as described previously, with an administration volume of 5 mL/kg for all groups. Blood samples were collected at the time points of pre-administration and 0.033 (only for the intravenous administration group), 0.083, 0.25, 0.5, 0.75, 1, 1.5, 2, 4, 6, 8, and 12 h post-administration.
(§2) The column temperature was set at 40 °C.

[8] = Pharmacokinetics of MT, 6-HMT and CBD in beagles after oral administration; conditions: male, beagle, dog, in vivo, po, 3 mg/kg, p.o.; for AUC(0-t) / AUC(0-inf) / Cmax / MRT last / Tmax: beagles; for MRT last: MRT(0–t); for half-life: t1/2, beagles
Experimental: Twelve male healthy adult beagles (weighing 10 ± 2 kg) were randomly divided into two groups. […] The drugs were dissolved in a physiological saline solution containing 5% castor oil, with an administration volume of 2 mL/kg. Blood samples were collected at the time points of pre-administration and 0.083, 0.25, 0.5, 0.75, 1, 1.5, 2, 4, 6, 8, and 12 h post-administration.
as §2

[9] = Liver microsome protein binding, rat; format: in vitro ADME; conditions: liver microsomes, pH 7.4
[10] = tested on: CYP1A2-mediated metabolism of MT; assay: Static DDI model prediction of CBD's impact on MT exposure, beagle; parameters: species or system beagle dog; conditions: input of static DDI model
Source text: as §1

[11] = Brain tissue protein binding, rat; format: in vitro ADME; conditions: pH 7.4
Experimental: as §3

[12] = molecular target: T1, PEPT1 (Homo sapiens, UniProt P46059); assay: Uptake and uptake inhibition in MDCK/hPEPT1 cell model; format: cell-based; conditions: 4 °C and 37 °C
T1 construct: host or cells: MDCK
T1 sequence (P46059 1-708): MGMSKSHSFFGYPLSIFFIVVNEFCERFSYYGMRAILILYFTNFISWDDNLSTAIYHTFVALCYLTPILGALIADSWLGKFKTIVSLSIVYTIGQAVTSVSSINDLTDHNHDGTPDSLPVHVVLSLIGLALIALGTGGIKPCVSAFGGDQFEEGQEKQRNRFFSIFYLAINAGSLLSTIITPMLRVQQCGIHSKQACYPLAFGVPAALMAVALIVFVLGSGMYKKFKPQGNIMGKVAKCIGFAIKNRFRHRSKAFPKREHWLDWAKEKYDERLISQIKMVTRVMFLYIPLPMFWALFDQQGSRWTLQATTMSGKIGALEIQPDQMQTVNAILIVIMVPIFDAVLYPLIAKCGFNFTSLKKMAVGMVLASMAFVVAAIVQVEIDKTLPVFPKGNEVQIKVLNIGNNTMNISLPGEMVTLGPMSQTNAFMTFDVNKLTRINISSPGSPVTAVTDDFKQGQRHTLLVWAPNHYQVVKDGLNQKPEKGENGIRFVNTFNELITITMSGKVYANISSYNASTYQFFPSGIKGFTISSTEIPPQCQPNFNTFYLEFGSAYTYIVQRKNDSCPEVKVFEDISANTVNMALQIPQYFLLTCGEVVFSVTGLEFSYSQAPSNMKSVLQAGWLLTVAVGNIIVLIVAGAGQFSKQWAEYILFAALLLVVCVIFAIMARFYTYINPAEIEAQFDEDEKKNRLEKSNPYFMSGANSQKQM
Experimental: MDCK-PEPT1 cells were seeded into 24-well plates at a density of approximately 5 × 10^5 cells per well. When the cell confluency reached 60–70%, the culture medium was aspirated, and the cells were rinsed twice with HBSS pre-warmed to 37 °C. […] After incubation at 37 °C for 10 min, the buffer was aspirated, and ice-cold HBSS was immediately added to terminate the reaction, followed by rinsing three times. After drying the residual liquid, 200 μL of pure water were added to each well, and the cells were lysed by repeated freezing–thawing in liquid nitrogen three times. The cell lysates were collected, and the protein content was determined by the BCA method.
Cell uptake assessment: The concentration of the analyte in cells was corrected using the protein concentration of the cell lysate in each well.(4) Conclysate=Concdrug/ConcProtein
The uptake rate (U, pmol/mg/min) of the compound was calculated following Formula (5).(5) U=Clysate/P×t where Clysate is the amount of drug in the cell lysate (ng); P is cellular protein content (mg); t is incubation time (min).
The uptake ratio of the compound was calculated following Formula (6)(6) UR=U/ UMOCK where UMOCK is the uptake rate in MOCK-MDCK cells (pmol/mg/min).
The inhibition ratio was calculated following Formula (7)(7) IR=(1−Uwith inhibitor−Umock with inhibitor/Uwithout inhibitor−Umock without inhibitor)×100%

[13] = Plasma protein binding (rapid equilibrium dialysis), human; format: in vitro ADME; conditions: pH 7.4, read-out: Plasma Protein Binding (converted)
Experimental: as §3

[14] = Liver microsome protein binding, human; format: in vitro ADME; conditions: liver microsomes, pH 7.4
Experimental: as §3

[15] = Sprague-Dawley, rat, in vivo, po, 5 mg/kg
[16] = male, Sprague-Dawley, rat, in vivo, po, 5 mg/kg, rats, p.o., MT + CBD (5 + 5) mg/kg
[17] = male, Sprague-Dawley, rat, in vivo, po, 5 mg/kg, rats, p.o., MT + CBD (5 + 20) mg/kg
[18] = male, Sprague-Dawley, rat, in vivo, po, 5 mg/kg, rats, p.o., MT + Vehicle 5 mg/kg

Structure (SMILES): COc1ccc2[nH]cc(CCNC(C)=O)c2c1 [MT, Melatonin]
- fraction unbound at 6 h [1]: 0.425
- fraction unbound at 6 h [2]: 0.78
- AUC of MT reduced by co-administration of CBD ([3]; ABT-treated rats): 2.29 fold
- Cmax of MT reduced by co-administration of CBD ([3]; ABT-treated rats): 2.3 fold
- AUC(0-t) [3, 15]: 8840 ng·h/mL
- Cmax [3, 15]: 2100 ng/mL
- Tmax [3, 15]: 30 min
- half-life [3, 15]: 78.6 min
- fraction unbound at 6 h [4]: 0.364
- fm(CYP1A2), proportion of MT metabolized by CYP1A2 [5]: 0.92
- fraction unbound at 6 h [6]: 0.451
- AUC(0-t) ([7]; male, Sprague-Dawley, rat, in vivo, iv, 1 mg/kg, AUC(0–t), rats, i.v., MT + CBD (1 + 1) mg/kg): 260 ng·h/mL
- MRT last ([7]; male, Sprague-Dawley, rat, in vivo, iv, 1 mg/kg, rats, i.v., MT + CBD (1 + 1) mg/kg): 10.2 min
- bioavailability ([7]; male, Sprague-Dawley, rat, in vivo, po, 5 mg/kg): 20.5%
- AUC(0-t) ([7]; male, Sprague-Dawley, rat, in vivo, po, 5 mg/kg, AUC(0–1h), rats, p.o., MT + CBD (5 + 5) mg/kg): 114 ng·h/mL
- AUC(0-t) ([7]; male, Sprague-Dawley, rat, in vivo, po, 5 mg/kg, AUC(0–1h), rats, p.o., MT + CBD (5 + 20) mg/kg): 65.2 ng·h/mL
- AUC(0-t) ([7]; male, Sprague-Dawley, rat, in vivo, po, 5 mg/kg, AUC(0–1h), rats, p.o., MT + Vehicle 5 mg/kg): 241 ng·h/mL
- AUC(0-t) ([7]; male, Sprague-Dawley, rat, in vivo, po, 5 mg/kg, AUC(0–t), rats, p.o., MT + CBD (5 + 5) mg/kg): 138 ng·h/mL
- AUC(0-t) ([7]; male, Sprague-Dawley, rat, in vivo, po, 5 mg/kg, AUC(0–t), rats, p.o., MT + CBD (5 + 20) mg/kg): 121 ng·h/mL
- AUC(0-t) ([7]; male, Sprague-Dawley, rat, in vivo, po, 5 mg/kg, AUC(0–t), rats, p.o., MT + Vehicle 5 mg/kg): 267 ng·h/mL
- Cmax [7, 16]: 212 ng/mL
- Cmax [7, 17]: 99 ng/mL
- Cmax [7, 18]: 588 ng/mL
- MRT last [7, 16]: 39 min
- MRT last [7, 17]: 79.8 min
- MRT last [7, 18]: 40.2 min
- Tmax [7, 16]: 19.8 min
- Tmax [7, 17]: 8.4 min
- Tmax [7, 18]: 10.2 min
- effect of co-administered MT on pharmacokinetic parameters of CBD ([7]; rats, p.o., CBD 20 mg/kg with MT 0, 5 or 20 mg/kg): does not produce obvious pharmacokinetic-based interactions with CBD
- t1/2 ([7]; rats, p.o., MT + CBD (5 + 5) mg/kg): 0.66 (0.14) h
- t1/2 ([7]; rats, p.o., MT + CBD (5 + 20) mg/kg): 1.80 (0.94) * h
- MT total exposure with CBD, as percent of MT alone ([7]; rats, p.o., high CBD dose): 45%
- AUC(0-t) ([8]; MT + CBD (3 + 3) mg/kg): 2540 ng·h/mL
- AUC(0-t) ([8]; MT + Vehicle 3 mg/kg): 602 ng·h/mL
- AUC(0-inf) ([8]; MT + CBD (3 + 3) mg/kg): 2550 ng·h/mL
- AUC(0-inf) ([8]; MT + Vehicle 3 mg/kg): 612 ng·h/mL
- Cmax ([8]; MT + CBD (3 + 3) mg/kg): 1360 ng/mL
- Cmax ([8]; MT + Vehicle 3 mg/kg): 1080 ng/mL
- MRT last ([8]; MT + CBD (3 + 3) mg/kg): 99.6 min
- MRT last ([8]; MT + Vehicle 3 mg/kg): 30 min
- Tmax ([8]; MT + CBD (3 + 3) mg/kg): 42.6 min
- Tmax ([8]; MT + Vehicle 3 mg/kg): 13.2 min
- half-life ([8]; MT + CBD (3 + 3) mg/kg): 55.2 min
- half-life ([8]; MT + Vehicle 3 mg/kg): 19.8 min
- fraction unbound at 6 h [9]: 0.972
- fm(CYP1A2), proportion of MT metabolized by CYP1A2 [10]: 0.92
- fraction unbound at 6 h [11]: 0.315
- uptake rate of MT, MOCK cells vs transfected cells [12]: no difference
- fraction unbound at 6 h [13]: 0.388
- fraction unbound at 6 h [14]: 0.979

Source: article PMC12845078 (Pharmaceuticals, 2025)
